In patent publication US6235493A, “Amino acid substituted-cresyl violet, synthetic fluorogenic substrates for the analysis of agents in individual in vivo cells or tissue” (priority 1998, dated 2001):
Blank lines part the entries; values can stand above or below the compound they belong to.

What was measured:
[1] = molecular target: T1, dipeptidyl peptidase IV (DPPIV) (CD26) (Rattus norvegicus, UniProt P14740); assay: cell-based; type: cell-based; settings: for mode of inhibition of DPPIV: individual living rat hepatocytes, image analysis
T1 construct: individual freshly isolated living rat hepatocytes; endogenous in cells; host or cells: hepatocytes freshly isolated from livers of male Wistar rats
T1 sequence (P14740 whole entry): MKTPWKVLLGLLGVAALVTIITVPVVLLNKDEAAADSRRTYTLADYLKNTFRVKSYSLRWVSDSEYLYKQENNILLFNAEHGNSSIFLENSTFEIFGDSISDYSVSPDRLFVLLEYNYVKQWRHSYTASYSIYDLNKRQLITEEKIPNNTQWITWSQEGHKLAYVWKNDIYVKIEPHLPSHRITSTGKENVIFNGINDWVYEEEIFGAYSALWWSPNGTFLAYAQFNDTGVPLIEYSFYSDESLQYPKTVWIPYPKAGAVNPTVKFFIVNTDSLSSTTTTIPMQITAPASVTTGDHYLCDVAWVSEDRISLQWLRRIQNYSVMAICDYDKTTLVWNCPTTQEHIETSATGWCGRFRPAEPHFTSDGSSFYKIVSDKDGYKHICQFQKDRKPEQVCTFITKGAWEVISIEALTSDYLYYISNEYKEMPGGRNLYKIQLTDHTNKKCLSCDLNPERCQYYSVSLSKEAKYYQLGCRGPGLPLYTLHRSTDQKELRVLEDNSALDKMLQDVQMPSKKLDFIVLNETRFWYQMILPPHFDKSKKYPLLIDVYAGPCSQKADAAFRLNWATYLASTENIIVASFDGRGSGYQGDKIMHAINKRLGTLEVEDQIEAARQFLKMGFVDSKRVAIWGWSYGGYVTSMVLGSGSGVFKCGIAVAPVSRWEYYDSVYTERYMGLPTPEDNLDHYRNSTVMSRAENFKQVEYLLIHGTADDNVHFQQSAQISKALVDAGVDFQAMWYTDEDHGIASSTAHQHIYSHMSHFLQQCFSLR
Procedure: Hepatocytes were isolated by collagenase perfusion of livers of male Wistar rats (200-250 g; HSD Animal Farm, Zeist, The Netherlands) after 24 h of starvation as described previously (30). The animals were exposed to a controlled dark-light cycle (light: 7:00 a.m.-7:00 p.m.) throughout the acclimatization period of at least 1 week. Before starvation, animals had free access to food (standard chow diet; Hope Farms, Woerden, The Netherlands) and water. The animals had always free access to water. During operation, the animals were under Nembutal anaesthesia. Animal care was performed according to the guidelines of the University of Amsterdam. Hepatocytes (5-10 mg dry mass/ml) were kept in Krebs-Henseleit bicarbonate medium containing 1.3 mM Ca^2+, 10 mM sodium Hepes (pH 7.4), 20 mM glucose and 1 mM octanoate on ice until enzyme assays. Homogenates were prepared by freezing cell suspensions in liquid nitrogen and subsequent thawing. One volume of homogenates and 10 volumes of 20 mM Tris-HCI buffer (pH 7.4) containing 1% (v/v) Triton X-100 were mixed and incubated at 4° C. under constant stirring for 60 min. One part of these homogenates was used for the determination of DPPIV activity. Another part was centrifuged (40,000 x g, 4° C., 20 min) and the supernatants were used as membrane fractions for the determination of DPPIV activity.
Analysis of DPPIV Activity
DPPIV activity was determined in hepatocytes using 6 approaches. Activity was determined in living hepatocytes with confocal scanning laser microscopy, image processing and analysis, flow cytometry, and fluorometry. Fluorometry was also used for the determination of activity in homogenates of hepatocytes and in membrane fractions of hepatocytes. Incubations were started at t=0 by adding an aliquot of 60 μl hepatocytes to 3 ml Krebs-Henseleit medium containing 0-50 μM (Ala-Pro)^2 -cresyl violet in the presence or absence of 0-50 μM Ala-Pip^p (OPh-4-Cl)2 (Enzyme Systems Products), which is a selective DPPIV inhibitor (31A,32A). Substrate and inhibitor were dissolved first in dimethylsulfoxide. The final concentration of dimethylsulfoxide in the incubation medium was 0.5% (v/v). Incubations were carried out at 20° C. Confocal scanning laser microscopy was performed after 100 μl of an assay medium containing hepatocytes was brought into a well formed by a stainless steel ring attached to a glass slide (33A). Images of cells were captured in time with a Leica confocal scanning laser microscope fitted to a Leica Fluovert inverted microscope equipped with a PL APO oil-immersion objective (63×, NA 1.40). Excitation was performed at 568 nm and fluorescence was captured at >595 nm. The pinhole aperture was set to provide an optimized image (34A). Cells were subjected to optical serial sectioning after each 60 sec of incubation up to 300 sec. Images in the X-Y plane were recorded with intervals of 0.5 μm in the Z direction. Each optical section was averaged 8 times. Images were recorded din a 512×512 pixel format. The size of each pixel represented 0.015 μm^2 in the object. Confocal data stacks of 20-30 optical sections were processed with standard Leica software package.
Image analysis was performed by transferring an aliquot of 100, μl of an incubation medium containing hepatocytes into an incubation chamber that consisted of an object glass and a cover glass separated by a spacer made of adhesion tape with a thickness of […]. The object glass was set on the stage of a fluorescencee microscope (Leitz Dialux 20, Wetzlar, Germany) with a ×25 objective (NA 0.75). A drop of medium was placed beside the cover glass and the chamber became filled by capillary forces in a few seconds. […]

[2] = tested on: dipeptidyl peptidase IV (DPPIV); assay: DPPIV activity in membrane fractions of hepatocytes (fluorometry); type: biochemical, rat; settings: membrane fractions of the same hepatocyte suspensions
Procedure: Hepatocytes were isolated by collagenase perfusion of livers of male Wistar rats (200-250 g; HSD Animal Farm, Zeist, The Netherlands) after 24 h of starvation as described previously (30). The animals were exposed to a controlled dark-light cycle (light: 7:00 a.m.-7:00 p.m.) throughout the acclimatization period of at least 1 week. Before starvation, animals had free access to food (standard chow diet; Hope Farms, Woerden, The Netherlands) and water. The animals had always free access to water. During operation, the animals were under Nembutal anaesthesia. Animal care was performed according to the guidelines of the University of Amsterdam. […]
DPPIV activity was determined in hepatocytes using 6 approaches. Activity was determined in living hepatocytes with confocal scanning laser microscopy, image processing and analysis, flow cytometry, and fluorometry. […] Excitation was performed at 568 nm and fluorescence was captured at >595 nm. […] Images in the X-Y plane were recorded with intervals of 0.5 μm in the Z direction. […] Images were recorded din a 512×512 pixel format. […]
Calibration was performed by measuring fluorescence of a series of solutions of 0-10 μM cresyl violet in Krebs-Henseleit medium. These solutions were also used to test the properties of cresyl violet for quantitative purposes. The depth of the incubation chamber was 24 μm and the size of the area measured 240×170 μm. […]

[3] = Fluorescence properties of cresyl violet (image analysis calibration); type: physicochemical
Procedure: Calibration was performed by measuring fluorescence of a series of solutions of 0-10 μM cresyl violet in Krebs-Henseleit medium. These solutions were also used to test the properties of cresyl violet for quantitative purposes. The depth of the incubation chamber was 24 μm and the size of the area measured 240×170 μm. The total volume that was measured was thus 0.001 μl. The amount of fluorescence captured by image analysis was linearly related with concentrations up to at least 10 μM when measured in a thin film of 24 μm which approximates the diameter of cells (FIG. 2A). Thus, cresyl violet has fluorescence properties that are necessary for quantitative fluorescence microscopy (36B). On the basis of FIG. 2A, it was calculated that 100 gray values corresponded with 6.7 fmoles cresyl violet. […] Flow cytometric analysis of production of cresyl violet in hepatorcytes was performed with a FAC-Star Plus (Becton and Dickinson, San Jose, Calif., USA) using the software program CellQuest (version 1.0; Becton and Dicksinson). Prior to analysis, cells were stained with the DNA dye Hoechst 3.3.3.4.2 (36 ,μg/ml; Hoechst Holland, Amsterdam, The Netherlands) for 30 min at 0° C. Analysis was started by established forward scatter and then substrate was added at t=0. Analysis was performed at a flow rate of 200 cells/sec. The parameters measured were time, forward scatter, fluorescence of Hoechst 3.3.3.4.2 dye (excitation at 350 nm, emission at 485 nm with a band width of 20 nm), and fluorescence of cresyl violet (excitation at 514 nm, emission at 630 nm with a band width of 22 nm). Filters were obtained from Becton and Dickenson. The power of the lasers was set at […]. Fluorometric analysis with time was carried out with a Perkin-Elmer LS 50 fluorescence spectrometer (Perkin-Elmer, Gouda, The Netherlands) under continuous magnetic stirring. Cuvettes with a light path of 1 cm were used. Excitation was performed at 591 nm with a slid width of 10 nm and emission was measured at 628 nm (slid width 10 nm). The first measurement was made at 5 sec after mixing cells and incubation medium.

[4] = Water solubility (stated); type: physicochemical; settings: free cresyl violet; avoids accumulation around mitochondria

Vmax in individual hepatocytes [1]: 4-16 nU | Km ([1]; hepatocytes): 6 to 22 µM | conversion rate in the rat with the highest Vmax and lowest Km vs rat with the lowest Vmax and highest Km ([1]; physiological substrate concentrations): 10- to 20 fold | inverse relationship between Km and Vmax in membrane fractions [2]: lost
SMILES: C[C@H](N)C(=O)N1CCC[C@H]1C(=O)NC1=CC2Oc3cc(NC(=O)[C@@H]4CCCN4C(=O)[C@H](C)N)ccc3N=C2c2ccccc21 (stereo partly drawn) [Ala-Pro-cresyl violet, [Ala-Pro]^2-cresyl violet]

amount corresponding with 100 gray values ([3]; image analysis calibration, FIG. 2A): 6.7 fmol | linearity of fluorescence with concentration (up to) ([3]; thin film of 24 μm, Krebs-Henseleit medium): at least 10 μM | water solubility [4]: sufficiently water soluble
SMILES: N=c1cc2oc3cc(N)ccc3nc-2c2ccccc12 [cresyl violet]
fading of fluorescence during measurements in time ([3]; FIG. 2B): Fading did not occur to any significant extent

SMILES: C[C@H](N)C(=O)N1CCCCC1P(=O)(Oc1ccc(Cl)cc1)Oc1ccc(Cl)cc1 (some centres unmarked) [Ala-Pip^p (OPh-4Cl)2, Ala-Pip^p (OPh-4-Cl)2]
Ki [1]: 7 µM | mode of inhibition of DPPIV [1]: selective competitive inhibitor | mode of inhibition of DPPIV ([1]; listed as dipeptide phosphonate inhibitor): competitively
